Test results published in patent US20260224486A1, “DIANHYDROHEXITOL BASED IONIZABLE LIPIDS FOR NUCLEIC ACID DELIVERY” (SANOFI PASTEUR INC., priority 2023, published 2026).

What was measured:
BALB/cJ mice = assay: Delivery of hEPO mRNA by intramuscular administration of LNPs; serum hEPO by ELISA; type: in vivo, Mouse; conditions: for hEPO 6 Hr (ng/mL) Mean: Table 3, isomannide-derived lipids
Procedure: In summary, lipid screening studies were conducted with female BALB/cJ mice 6-8 weeks of age. Mice were dosed with 0.1 μg in 30 μL of LNPs by a single intramuscular (IM) injection into the gastrocnemius leg muscle. Blood samples were taken 6 and 24 hours post injection and hEPO levels were measured in the blood serum of the mice using an ELISA assay according to the manufacture's protocol.
Treatment Regimen: On Day 1, animals from Groups 1-33 were dosed via intramuscular injection while under light isoflurane anesthesia according to the study design table above. Animals in Groups 1-33 were injected with EPO mRNA LNPs in the right leg only. Groups 1 and 17 animals received MC3 control.
Interim Sample Collections: Interim whole blood (^~50 μL) was collected by tail snip or saphenous vein at 6 and 24 hours post dose administration (±5%). Blood samples were collected into serum separator tubes, allowed to clot at room temperature for at least 10 minutes, centrifuged at ambient temperature at minimum 1000 g for 10 minutes and the serum was extracted. All serum samples were stored at nominally −70° C. until analysis hEPO by the Testing Facility. The results of the EPO analysis were included in the Data Submission.
Terminal Blood Collections: Whole blood was collected via cardiac puncture into serum separator tube, allowed to clot at room temperature for at least 10 minutes, centrifuged at ambient temperature at minimum 1000 g for 10 minutes and the serum was extracted. Serum samples were stored at nominally −70° C. until analyzed for hEPO by the Test Facility.
ELISA Assay: Human erythropoietin (hEPO) levels in sera samples were determined by ELISA kit (R&D systems, Cat #DEP-00) according to the manufactory instruction and the results were included in the Data Submission. The “shaker” protocol was used. The serum samples were diluted between 1:40 and 1:100.

[1] = Lipid nanoparticle size and polydispersity index by dynamic light scattering (Malvern Zetasizer); type: physicochemical; conditions: hEPO mRNA LNP, Process A, Cationic Lipid:DMG-PEG2000:Cholesterol:DOPE 40:1.5:28.5:30 mol %, N/P 4
Description: The lipid nanoparticles in the examples of the present invention were formulated using Process A of WO 2018/089801 (see, e.g., Example 1 and FIG. 1 of WO 2018/089801). Process A (“A”) relates to a conventional method of encapsulating mRNA by mixing mRNA with a mixture of lipids, without first pre-forming the lipids into lipid nanoparticles. In an exemplary process, an ethanolic solution of a mixture of lipids (cationic lipid, phosphatidylethanolamine, cholesterol, and polyethylene glycol-lipid) at a fixed lipid to mRNA ratio were combined with an aqueous buffered solution of target mRNA at an acidic pH under controlled conditions to yield a suspension of uniform LNPs. After ultrafiltration and diafiltration into a suitable diluent system, the resulting nanoparticle suspensions were diluted to final concentration, filtered, and stored frozen at −80° C. until use.
(§1) Lipid nanoparticle formulations of Table 1 were prepared by Process A. All of the lipid nanoparticle formulations comprised hEPO mRNA and the different lipids (Cationic Lipid: DMG-PEG2000: Cholesterol: DOPE) in mol % ratios of 40:1.5:28.5:30 (Cationic Lipid: DMG-PEG2000: Cholesterol: DOPE).
The Polydispersity Index (Pdl) of lipid nanoparticles can be determined by diluting the formulation in 10% trehalose at about 0.1 mg/ml mRNA concentration and then measuring the size on Malvern zetasizer. The lipid nanoparticle size can be obtained with Malvern Zetasizer Nano-ZS.
Dynamic light scattering (DLS) measurements were performed using a Malvern Instruments Zetasizer with a backscattering detector angle of 173° and a 4-mW, 633-nm He—Ne laser (Worcestershire, UK). The samples were analyzed by diluting in 10% Trehalose and measuring the size and Poly dispersity Index (PDI) in an optical grade polystyrene cuvette.

[2] = mRNA encapsulation efficiency of lipid nanoparticles (RiboGreen assay); type: physicochemical; conditions: hEPO mRNA LNP, Process A, Cationic Lipid:DMG-PEG2000:Cholesterol:DOPE 40:1.5:28.5:30 mol %, N/P 4
Description: In embodiments, the lipid nanoparticle encapsulates a nucleic acid, optionally an mRNA encoding a peptide or protein. In embodiments, the lipid nanoparticle encapsulates an mRNA encoding a peptide or protein, optionally for use in a vaccine. In embodiments, the peptide is an antigen. As used herein, the phrase “encapsulation percentage” refers to the fraction of therapeutic agent (e.g. mRNA) that is effectively encapsulated within a liposomal-based vehicle (e.g. a lipid nanoparticle) relative to the initial fraction of therapeutic agent present in the lipid phase. In embodiments, the lipid nanoparticles have an encapsulation percentage for mRNA of at least 50%. In embodiments, the lipid nanoparticles have an encapsulation percentage for mRNA of at least 55%. In embodiments, the lipid nanoparticles have an encapsulation percentage for mRNA of at least 60%. In embodiments, the lipid nanoparticles have an encapsulation percentage for mRNA of at least 65%. In embodiments, the lipid nanoparticles have an encapsulation percentage for mRNA of at least 70%. In embodiments, the lipid nanoparticles have an encapsulation percentage for mRNA of at least 75%. In embodiments, the lipid nanoparticles have an encapsulation percentage for mRNA of at least 80%. In embodiments, the lipid nanoparticles have an encapsulation percentage for mRNA of at least 85%. In embodiments, the lipid nanoparticles have an encapsulation percentage for mRNA of at least 90%. In embodiments, the lipid nanoparticles have an encapsulation percentage for mRNA of at least 95%. In embodiments, the encapsulation percentage is calculated by performing the Ribogreen assay (Invitrogen) with and without the presence of 0.1% Triton-X 100.
as §1
The RiboGreen Assay is a fluorescence-based method for the determination of mRNA concentration (Total and Free) and % encapsulation using Quant-iT™ RiboGreen® RNA reagent in mRNA containing lipid nanoparticles.
• To each of the standards (Blank, mRNA-1, mRNA-2. mRNA-3, mRNA-4, mRNA-5) and Samples (free mRNA and total mRNA), add 1.0 mL of 200-fold Ribogreen Reagent Solution and gently mix by inversion. This is a 2× Dilution. • Add 200 μL of each standard and sample in triplicate using the reverse pipetting technique in a 96-well Costar Black with Clear Background Plate. Ensure no bubbles are present in the plate before the fluorescence reading. • Read the fluorescence signal using the below instrument parameters: • Read Type: Fluorescence, Bottom Read • Excitation: 485 nm; Cut-off: 515 nm; Emission: 530 nm • Plate Type: 96-well Costar Black with Clear Background
The average fluorescence from each calibration standard is plotted against the concentration to generate a linear calibration curve using the MS Excel software. The coefficient of determination (R^2) of calibration curve must be R^2>0.99.
[formula] • Where, • Y=average fluorescence value • m: slope • x: concentration (pg/mL) • c: y-intercept • Using the linear equation, calculate the concentration of free and total mRNA concentration in the test sample by replacing the y value in the equation with the average fluorescence value of each respective sample • Once the concentration is determined, the actual concentration in the sample can be back-calculated by multiplying the concentration in the test sample with the dilution factor (DF) as follows:
[formula] [formula] • Concentration of encapsulated mRNA can be determined by subtracting the concentration of free mRNA from the total mRNA. • % Encapsulation can then be calculated by taking the ratio of encapsulated mRNA over total mRNA and multiplying the result with 100.

[3] = Table 2, isosorbide-derived lipids, mouse serum 6 hours post single IM injection of 0.1 μg hEPO mRNA LNP
[4] = mouse serum 6 hours post single IM injection of 0.1 μg hEPO mRNA LNP

Polydispersity Index (PDI) [1] | Size (nm) [1] [nm] | Encapsulation efficiency (EE) % [2] [%] | SMILES | hEPO 6 Hr (ng/ml) Mean (BALB/cJ mice; [3]) [ng/mL] | hEPO 6 Hr (ng/ml) Mean (BALB/cJ mice; Table 4, further lipids, mouse serum 6 hours post IM injection of hEPO mRNA LNP as in example 3) [ng/mL] | hEPO 6 Hr (ng/mL) Mean (BALB/cJ mice; [4]) [ng/mL]
0.139 | 78 | 96 | CCCCCCCCC(O)CN(CCCCC(=O)O[C@H]1CO[C@H]2[C@@H]1OC[C@H]2OC(=O)CCCCN(CC(O)CCCCCCCC)CC(O)CCCCCCCC)CC(O)CCCCCCCC (stereo partly shown) [Compound 21] | 31.6 |  | 
0.1 | 75 | 91 | CCCCCCCCCCC(O)CN(CCCC(=O)O[C@H]1CO[C@H]2[C@@H]1OC[C@H]2OC(=O)CCCN(CC(O)CCCCCCCC)CC(O)CCCCCCCC)CC(O)CCCCCCCCCC (stereo partly shown) [Compound 22] | 34.1 |  | 
0.13 | 81 | 96 | CCCCCCCCCCC(O)CN(CCCCC(=O)O[C@@H]1CO[C@H]2[C@@H]1OC[C@@H]2OC(=O)CCCN(CC(O)CCCCCCCCCC)CC(O)CCCCCCCCCC)CC(O)CCCCCCCCCC (stereo partly shown) [Compound 25] | 42.7 |  | 
0.103 | 91 | 94 | CCCCCCCCCCCCC(O)CN(CCCCC(=O)O[C@H]1CO[C@H]2[C@@H]1OC[C@H]2OC(=O)CCCCN(CC(O)CCCCCCCCCCCC)CC(O)CCCCCCCCCCCC)CC(O)CCCCCCCCCCCC (stereo partly shown) [Compound 28] | 40.2 |  | 
0.12 | 98 | 97 | CCCCCCCCCCCCCCCCC(O)CN(CCCCC(=O)O[C@@H]1CO[C@H]2[C@@H]1OC[C@H]2OC(=O)CCCCN(CC(O)CCCCCCCCCCCCCCCC)CC(O)CCCCCCCCCCCCCCCC)CC(O)CCCCCCCCCCCCCCCC (stereo partly shown) [Compound 31] | 14.1 |  | 
0.11 | 109 | 99 | CCCCCCCCCCCOC(=O)CCCC(O)CN(CCCC(=O)O[C@H]1CO[C@H]2[C@@H]1OC[C@H]2OC(=O)CCCN(CC(O)CCCCCC(=O)OC(CCCCCCCC)CCCCCCCC)CC(O)CCCC(=O)OCCCCCCCCCCC)CC(O)CCCCCC(=O)OC(CCCCCCCC)CCCCCCCC (stereo partly shown) [Compound 33] | 17.6 |  | 

More lines, now with the values behind:

SMILES | Polydispersity Index (PDI) [1] | Size (nm) [1] [nm] | Encapsulation efficiency (EE) % [2] [%] | hEPO 6 Hr (ng/ml) Mean (BALB/cJ mice; [3]) [ng/mL] | hEPO 6 Hr (ng/ml) Mean (BALB/cJ mice; Table 4, further lipids, mouse serum 6 hours post IM injection of hEPO mRNA LNP as in example 3) [ng/mL] | hEPO 6 Hr (ng/mL) Mean (BALB/cJ mice; [4]) [ng/mL]
CCCCCCCCCCC(O)CN(CCCC(=O)O[C@H]1CO[C@H]2[C@@H]1OC[C@H]2OC(=O)CCCN(CC(O)CCCCCCCCCC)CC(O)CCCCCCCCCC)CC(O)CCCCCCCCCC (stereo partly shown) [Compound 29] | 0.13 | 126 | 96 | 38.4 |  | 
CCCCCCCCCCCCCCCCC(O)CN(CCCC(=O)O[C@H]1CO[C@H]2[C@@H]1OC[C@H]2OC(=O)CCCN(CC(O)CCCCCCCCCCCCCCCC)CC(O)CCCCCCCCCCCCCCCC)CC(O)CCCCCCCCCCCCCCCC (stereo partly shown) [Compound 30] | 0.16 | 106 | 94 | 25.2 |  | 
CCCCCC/C=C\COC(=O)CCCCCC(O)CN(CCCC(=O)O[C@@H]1CO[C@H]2[C@@H]1OC[C@@H]2SC(=O)CCCN(CC(O)CCCCCCCCCC)CC(O)CCCCCCCCCC)CC(O)CCCCCC(=O)OC/C=C\CCCCCC (stereo partly shown) [Compound 34] | 0.1 | 84 | 92 | 33.8 |  | 
CCCCCC/C=C\COC(=O)CCCCCC(O)CN(CCCC(=O)O[C@H]1CO[C@H]2[C@@H]1OC[C@H]2OC(=O)CCCN(CC(O)CCCCCC(=O)OC/C=C\CCCCCC)CC(O)CCCCCC(=O)OC/C=C\CCCCCC)CC(O)CCCCCC(=O)OC/C=C\CCCCCC (stereo partly shown) [Compound 35] | 0.08 | 92 | 82 | 28.5 |  | 
CCCCCCCCCCC(O)CN(CCCOC(=O)O[C@@H]1CO[C@H]2[C@@H]1OC[C@H]2OC(=O)OCCCN(CC(O)CCCCCCCCCC)CC(O)CCCCCCCCCC)CC(O)CCCCCCCCCC (stereo partly shown) [Compound 36] | 0.2 | 94 | 88 |  | 31.7 | 
CCCCCCCCCCCCC(O)CN(CCCOC(=O)O[C@@H]1CO[C@H]2[C@@H]1OC[C@H]2OC(=O)OCCCN(CC(O)CCCCCCCCCCCC)CC(O)CCCCCCCCCCCC)CC(O)CCCCCCCCCCCC (stereo partly shown) [Compound 37] | 0.25 | 65 | 95 |  |  | 27.4
CCCCCCCCCCC(O)CN(CCCCOC(=O)O[C@@H]1CO[C@H]2[C@@H]1OC[C@H]2OC(=O)OCCCCN(CC(O)CCCCCCCCCC)CC(O)CCCCCCCCCC)CC(O)CCCCCCCCCC (stereo partly shown) [Compound 38] | 0.12 | 69 | 72 |  |  | 22.6
